# Assay results reported in publication PMC6995558, “Biological Evaluation, Molecular Docking, and SAR Studies of Novel 2-(2,4-Dihydroxyphenyl)-1H- Benzimidazole Analogues” (Biomolecules, 2019).
# Where two headings read alike, the source gives them in different places.
# Experiments:
# [1] = In vitro antioxidant activity assay (DPPH radical scavenging); conditions: DPPH 100 μM in methanol, 37 °C, 30 min; means ± SD of three experiments; read-out: IC50(DPPH) radical scavenging effect
# Protocol: Antioxidant activity of each compound and standards (rutin) was assessed based on the radical scavenging effect of stable DPPH free radical. An amount of 10 μL of each tested compound or standard series of different concentrations (from 0.0 to 100 µM) was added to 9 mL of methanol solution of 2,2-diphenyl-1-picrylhydrazyl (DPPH) (100 μM). After incubation at 37 °C for 30 min, decrease in the absorbance of each solution was measured at 520 nm. The absorbance of the blank sample containing the same amount of DMSO and DPPH solution was also prepared and measured. All experiments were conducted in triplicate. The scavenging potential was compared with a solvent control (0% radical scavenging) and the standard compound. Radical scavenging activity (%AA) was calculated by the following formula: (%AA) = [(A0 − A1)/A0] × 100%(3) in which (A0) is the absorbance of the blank sample and (A1) is the absorbance of the tested compound (t = 30 min).
# Reactive oxygen species are a causal factor in the process of aging and the cumulative damage has been associated with AD [45]. In this study, the DPPH radical scavenging activity of the newly synthesized compounds was estimated using the Brand-Williams method.
# [2] = molecular target: T1, butyrylcholinesterase (BuChE, E.C. 3.1.1.8, from equine serum) (Equus caballus, UniProt P81908); assay: biochemical
# T1 construct: butyrylcholinesterase (BuChE, E.C. 3.1.1.8, from equine serum); purchased Sigma-Aldrich (Steinheim, Germany); host or cells: equine serum (natural source)
# Protocol: (§1) The details were described previously.
# (§2) Their potency was determined using the modified Ellman’s method and expressed as the half of maximal inhibitory concentration, IC50 [34].
# [3] = molecular target: T2, Acetylcholinesterase (AChE, E.C. 3.1.1.7, from human erythrocytes) (Homo sapiens, UniProt P22303); assay: biochemical; type: biochemical; conditions: for Selectivity for AChE: IC50(BuChE)/IC50(AChE); for IC50: means ± SD of three independent experiments
# T2 construct: Acetylcholinesterase (AChE, E.C. 3.1.1.7, from human erythrocytes); purchased Sigma-Aldrich (Steinheim, Germany); host or cells: human erythrocytes (natural source)
# Protocol: as §1, §2
# [4] = RP-18 HPLC chromatography lipophilicity estimation; type: physicochemical; conditions: for −S (slope): methanol/acetate buffer pH 4.0; for log kw (intercept): methanol/acetate buffer pH 4.0, extrapolated to pure water
# Protocol: The Eurosil Bioselect C18 (5 μm, 300 × 4.6 mm) column was used as the stationary phase. The mobile phase consisted of different volume mixtures of methanol and 20 mM acetate buffer as the aqueous phase to give pH 4.0. The organic modifier concentration ranged from 0.30 to 0.75, depending on the structure of the compound at 0.05 (0.1) intervals. The flow rate was 0.5 cm^3·min^−1 at room temperature. Measurements were made at 292 nm. The retention time of an unretained solute (t0) was determined by the injection of a small amount of acetone dissolved in water. […] This is described by the Soczewiński–Wachtmeister dependence: log k = log kw + S (% organic modifier)(1) in which log kw is the retention factor of a solute with pure water as the mobile phase (intercept) and S is the regression curve (slope). The log k values were calculated as log k = log (tR − t0)/t0, where tR is the retention time of a solute and t0 is the retention time of an unretained solute.
# To find the structure–activity relationships, some quantities of the compounds were estimated (Table 5). They included the lipophilicity parameter log kw obtained by RP-HPLC and calculated in silico log P, the topological polar surface area (tPSA), and the molar refractivity (MR) (Table 5). The log kw and S parameters obtained by the extrapolation technique are commonly used as lipophilicity descriptors.
# [5] = molecular target: T3, Amyloid β-peptide (1–42) (Aβ42) (Homo sapiens, UniProt P05067); assay: biochemical; conditions: ThT fluorescence, 24 h at 37 °C; means ± SD of three experiments; read-out: IC50(Aβ(1–42)) self-induced aggregation
# T3 construct: Amyloid β-peptide, (1–42) (Aβ42), was purchased from Aldrich; purchased Aldrich
# Protocol: Amyloid β-peptide, (1–42) (Aβ42), was purchased from Aldrich. Aβ42 was diluted in the phosphate buffer (pH 8.0) to obtain a 125.8 µM solution. The compounds under study were first dissolved in a small amount of methanol, and then further diluted in the phosphate buffer to the final concentration of 5–160 μM. To study the Aβ42 aggregation inhibition, the fluorescence emission of thioflavin T (ThT) was followed with curcumin as the reference compound [35, 36]. At first, the Aβ42 (10 μL) samples and the tested compounds (10 μL) were diluted with the phosphate buffer (60 μL) and then they were incubated for 24 h at 37 °C without stirring. As for the control, a sample of the peptide was incubated without the inhibitor. The tests were carried out in black, flat-bottom, 96-well plates. Then 20 µL of 2.5 µM ThT in 50 mM glycine–NaOH (pH 8.5) was added and incubated for 5 min. Fluorescence was monitored with the excitation at 446 nm and the emission at 490 nm. A time scan of fluorescence was performed and the intensity values reached the plateau (300 s). […]. The reported values were obtained as the mean ± SD of triplicate of three independent experiments.
# Nowadays, the amyloid hypothesis has become the dominating paradigm for understanding AD [44]. Aβ(1–42) is the most amyloidogenic Aβ fragment found in the AD plaques. […].
# [6] = tested on: AChE; conditions: Figure 1; cited from earlier work
# [7] = means ± SD of three experiments, read-out: BuChE IC50
# T1 sequence (P81908 whole entry): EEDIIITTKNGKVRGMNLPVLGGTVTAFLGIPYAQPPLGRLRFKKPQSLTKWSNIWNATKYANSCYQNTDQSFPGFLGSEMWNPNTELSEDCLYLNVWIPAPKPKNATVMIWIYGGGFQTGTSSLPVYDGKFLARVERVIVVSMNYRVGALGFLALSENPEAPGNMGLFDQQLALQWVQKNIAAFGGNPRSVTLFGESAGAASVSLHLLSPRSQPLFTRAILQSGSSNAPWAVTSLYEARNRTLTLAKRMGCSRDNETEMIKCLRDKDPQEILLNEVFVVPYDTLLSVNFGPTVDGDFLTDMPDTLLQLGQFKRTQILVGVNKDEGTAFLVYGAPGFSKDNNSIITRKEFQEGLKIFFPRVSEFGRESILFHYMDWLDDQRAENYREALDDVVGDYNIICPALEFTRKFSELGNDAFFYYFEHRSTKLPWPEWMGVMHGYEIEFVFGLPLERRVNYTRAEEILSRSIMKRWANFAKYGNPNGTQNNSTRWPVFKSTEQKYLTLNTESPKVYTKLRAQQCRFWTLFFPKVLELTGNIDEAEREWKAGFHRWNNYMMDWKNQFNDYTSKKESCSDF
# T2 sequence (P22303 32-617 isoform P22303-2 limits assumed): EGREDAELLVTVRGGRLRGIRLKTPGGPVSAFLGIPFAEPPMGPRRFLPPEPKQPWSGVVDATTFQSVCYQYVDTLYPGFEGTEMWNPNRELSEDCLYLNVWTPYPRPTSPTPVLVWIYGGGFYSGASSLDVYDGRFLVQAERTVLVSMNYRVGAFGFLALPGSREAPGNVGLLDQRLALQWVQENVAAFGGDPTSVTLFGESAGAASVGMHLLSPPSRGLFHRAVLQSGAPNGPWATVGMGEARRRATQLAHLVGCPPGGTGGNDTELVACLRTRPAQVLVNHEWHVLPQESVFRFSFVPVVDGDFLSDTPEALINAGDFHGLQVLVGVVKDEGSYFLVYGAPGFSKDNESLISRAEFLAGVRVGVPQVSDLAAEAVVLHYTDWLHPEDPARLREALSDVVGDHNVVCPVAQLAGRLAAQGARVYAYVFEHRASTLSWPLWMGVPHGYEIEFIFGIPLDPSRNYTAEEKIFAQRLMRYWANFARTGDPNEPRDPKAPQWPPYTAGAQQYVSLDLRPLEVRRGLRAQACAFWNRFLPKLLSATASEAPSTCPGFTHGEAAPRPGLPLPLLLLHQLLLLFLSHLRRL
# T3 sequence (P05067 672-713 limits assumed): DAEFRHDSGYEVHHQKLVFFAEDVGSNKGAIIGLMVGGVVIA
Compound,IC50 [1] [µM],"IC50 [2, 7] [µM]",Selectivity for AChE [3],IC50 [3] [µM],−S (slope) [4],log kw (intercept) [4],Selectivity for AChE with respect to BuChE (in words) [3],IC50 [5] [µM],Activity against AChE (in words) [3],IC50 [6] [µM],IC50 [2] [µM]
"Oc1cc(O)c(-c2nc3cc(Cl)c(Cl)cc3[nH]2)cc1Cl [Compound 2, 4-(5,6-Dichloro-1H-benzimidazol-2-yl)-6-chlorobenzene-1,3-diol]",0.213 ± 0.08,22.69 ± 0.078,41.9,0.541 ± 0.036,5.770,5.460,,,,,
"Cc1c(O)ccc(-c2nc3ccc(C(F)(F)F)cc3[nH]2)c1O [Compound 3, 4-[6-(Trifluoromethyl)-1H-benzimidazol-2-yl]-2-methylbenzene-1,3-diol]",,14.02 ± 0.111,143.1,0.098 ± 0.005,6.299,5.720,,,,,
"CCc1cc(-c2nc3cc(C(F)(F)F)cc(Cl)c3[nH]2)c(O)cc1O [Compound 4, 4-(7-Chloro-5-(trifluoromethyl)-1H-benzimidazol-2-yl)-6-ethylbenzene-1,3-diol]",,46.03 ± 0.104,390.0,0.118 ± 0.009,4.635,4.237,highly selective,,,,
"COc1ccc2nc(-c3cc(Cl)c(O)cc3O)[nH]c2c1 [Compound 6, 4-(6-Methoxy-1H-benzimidazol-2-yl)-6-chlorobenzene-1,3-diol]",0.362 ± 0.01,18.71 ± 0.173,203.4,0.092 ± 0.002,5.390,4.808,highly selective,27 ± 2.29,,,
"COc1ccc2nc(-c3ccc(O)c(O)c3O)[nH]c2c1 [Compound 7, 4-(6-Methoxy-1H-benzimidazol-2-yl)benzene-1,2,3-triol]",,> 500,,> 500,3.870,3.589,,,inactive,,
"CCOC(=O)c1ccc2[nH]c(-c3ccc(O)c(C)c3O)nc2c1 [Compound 8, Ethyl 2-(2,4-dihydroxy-3-methylphenyl)-1H-benzimidazole-5-carboxylate]",0.125 ± 0.06,25.35 ± 0.232,137.8,0.184 ± 0.022,4.097,2.566,,,,,
"CCOC(=O)c1ccc2[nH]c(-c3cc(CC)c(O)cc3O)nc2c1 [Compound 9, Ethyl 2-(5-ethyl-2,4-dihydroxyphenyl)-1H-benzimidazole-5-carboxylate]",,43.86 ± 0.381,45.6,0.962 ± 0.023,4.160,3.067,,,,,
"CCOC(=O)c1ccc2[nH]c(-c3c(O)cc(O)cc3O)nc2c1 [Compound 10, Ethyl 2-(2,4,6-trihydroxyphenyl)-1H-benzimidazole-5-carboxylate]",,> 500,,> 500,3.237,2.088,,,inactive,,
"Cc1c(O)ccc(-c2nc3ccc(C#N)cc3[nH]2)c1O [Compound 11, 2-(2,4-Dihydroxy-3-methylphenyl)-1H-benzimidazole-6-carbonitrile]",,> 500,,> 500,3.867,3.590,,,,,
"CCc1cc(-c2nc3ccc(C#N)cc3[nH]2)c(O)cc1O [Compound 12, 2-(5-Ethyl-2,4-dihydroxyphenyl)-1H-benzimidazole-6-carbonitrile]",0.209 ± 0.02,> 500,,> 500,4.854,3.360,,,,,
"O=[N+]([O-])c1ccc2nc(-c3ccc(O)cc3O)[nH]c2c1 [Compound 13, 4-(6-Nitro-1H-benzimidazol-2-yl)benzene-1,3-diol]",,106.6 ± 0.201,71.7,1.49 ± 0.118,4.655,2.475,,,,,
"Cc1c(O)ccc(-c2nc3ccc([N+](=O)[O-])cc3[nH]2)c1O [Compound 14, 2-Methyl-4-(6-nitro-1H-benzimidazol-2-yl)benzene-1,3-diol]",,88.36 ± 0.155,88.1,1 ± 0.196,4.596,2.674,,,,,
"Oc1ccc(-c2nc3ccccc3[nH]2)c(O)c1 [bib-1,3-diol, 4-(1H-benzimidazol-2-yl)benzene-1,3-diol, reference compound]",,31.02 ± 0.133,109.2,0.284 ± 0.014,2.979,1.732,,,,,
Clc1ccc2[nH]c(-c3ccc(OCCN4CCCCC4)cc3)nc2c1 [compound a],,,,,,,,,,0.13,
CCN(CC)Cc1cc(-c2nc3cc([N+](=O)[O-])ccc3[nH]2)ccc1O [compound b],,,,,,,,,,0.93,
CN1c2c(nn(-c3ccc(-c4nc5ccccc5[nH]4)cc3)c2-c2ccccc2)-c2ccccc2S1(=O)=O [compound f],,,,,,,,,,0.011,
O=C1c2ccccc2C(=O)N1CCCn1c[n+](Cc2cccc3ccccc23)c2ccccc21 [d],,,,,,,,,,0.056,
C=Cc1ccc(C[n+]2cn(C)c3ccccc32)cc1 [e],,,,,,,,,,0.045,
"CN(C)C(=O)Oc1cccc([N+](C)(C)C)c1 [neostigmine, reference compound]",,,,,,,,,,,0.068 ± 0.005
"C[C@@H]1O[C@@H](OC[C@H]2O[C@@H](Oc3c(-c4ccc(O)c(O)c4)oc4cc(O)cc(O)c4c3=O)[C@H](O)[C@@H](O)[C@@H]2O)[C@H](O)[C@H](O)[C@H]1O [rutin, reference compound]",0.087 ± 0.04,,,,,,,,,,
